Source: PMC10009755, “Discovery and Characterization of BAY-805, a Potent and Selective Inhibitor of Ubiquitin-Specific Protease USP21” (Journal of Medicinal Chemistry, 2023)
Converted amounts (≈) assume the structure as drawn. Blank lines part the entries; values can stand above or below the molecule they belong to.

What was measured:
NF-κB activation = assay: NF-κB reporter assay; type: cell-based; conditions: HEK293T cells, up to 10 μM
Description: Yang and colleagues reported that USP21 inhibition induces NF-κB activation by preventing deubiquitination of RIP1.[15] K63 ubiquitinated RIP1 is required for NF-κB activation, and thus USP21-mediated deubiquitination of RIP1 shuts down the NF-κB pathway.
Four hours after replating, cells were treated with compounds or DMSO (note: DMSO concentrations were kept consistent across all cells). Promega Dual-Luciferase Reporter Assay kit was then used to prepare samples for Firefly and Renilla signal measurement on a CLARIOstar microplate reader (BMG) 20 h after compound treatment. Relative luciferase units were calculated by normalizing the Firefly signal to the background Renilla signal, followed by normalization to DMSO controls of wild-type USP21.

log D measurement (HPLC) = type: physicochemical; conditions: reverse-phase HPLC, pH 7.5, pH 7.5, HPLC method; read-out: logD7.5
Description: log D values at pH 7.5 were recorded using an indirect method for determining hydrophobicity constants by reverse-phase HPLC. A series of compounds with well-known log D values were used for calibration. Test compounds were injected into the same HPLC system. The lipophilicity of compounds was then assessed by comparison to the calibration curve.

[1] = target: T1, C-terminal HiBiT-tagged USP21 (Homo sapiens, UniProt Q9UK80); assay: USP21 HiBiT CETSA; type: cell-based; conditions: 49 °C, HEK293T cells
T1 construct: expressed in transfected cells; host or cells: HEK293T
T1 sequence (Q9UK80 1-565): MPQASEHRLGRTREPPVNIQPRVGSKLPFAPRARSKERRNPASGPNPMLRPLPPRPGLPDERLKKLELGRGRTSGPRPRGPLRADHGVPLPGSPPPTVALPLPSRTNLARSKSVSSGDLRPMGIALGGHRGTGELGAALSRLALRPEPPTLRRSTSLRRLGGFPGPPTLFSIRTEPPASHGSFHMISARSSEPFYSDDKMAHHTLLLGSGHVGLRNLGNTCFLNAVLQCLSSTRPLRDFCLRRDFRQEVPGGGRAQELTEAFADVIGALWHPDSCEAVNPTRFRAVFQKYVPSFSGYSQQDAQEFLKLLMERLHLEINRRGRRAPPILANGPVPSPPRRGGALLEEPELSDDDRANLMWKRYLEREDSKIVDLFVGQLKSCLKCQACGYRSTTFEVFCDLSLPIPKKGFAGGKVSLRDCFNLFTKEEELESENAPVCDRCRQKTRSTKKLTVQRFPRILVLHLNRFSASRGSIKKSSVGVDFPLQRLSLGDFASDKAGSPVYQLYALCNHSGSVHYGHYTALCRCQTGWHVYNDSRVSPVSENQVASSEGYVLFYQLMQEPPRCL
Description: In particular, we utilized a HiBiT CETSA assay format[42],[43] conducted in intact HEK293T cells. Cells were transfected with USP21 fused to a small proluminescent NanoLuc HiBiT tag, which, when complemented with the Large BiT NanoLuc fragment, produces a quantifiable luminescence signal.
HEK293T cells were seeded in a six-well plate at 8 × 10^5 cells/well in 2 mL of DMEM supplemented with 10% FBS, penicillin (100 U/mL), and streptomycin (100 μg/mL) and transfected 4 h after seeding using an X-tremeGENE HP transfection reagent, following the manufacturer’s instructions with a total of 2 μg of plasmid constructs (C-terminally tagged USP21 HiBiT and empty pCDNA3.1 vector). […] The breathable paper adhesive film was then replaced with a PCR adhesive film, and cells were heated at indicated temperatures in an Applied Biosystems VeritiPro thermal cycler for 3 min, followed by 3 min incubation at rt before the addition of LgBiT solution (200 nM LgBiT, 2% NP-40, protease inhibitors (Roche cOmplete, ethylenediaminetetraacetic acid (EDTA)-free Protease Inhibitor) in OptiMEM no phenol red (Gibco)) to lyse cells.

in vitro = in vitro ADME; conditions: human, Caco-2, pH 7.2
Description: Caco-2 cells [purchased from the German Collection of Microorganisms and Cell Cultures (DSMZ)] were seeded at a density of 4.5 × 10^4 cells/well on 24-well insert plates [0.4 μm pore size, 0.3 cm^2 (Costar)] and grown for 13–15 days in DMEM medium supplemented with 10% fetal calf serum (FCS), 1% GlutaMAX (100×, Gibco), 100 U/mL penicillin, 100 μg/mL streptomycin (Gibco), and 1% nonessential amino acids (100×, Thermo Fischer Scientific). […] The medium was changed every 2–3 days.
The bidirectional transport assay for the evaluation of Caco-2 permeability was undertaken in 24-well insert plates using a robotic system (Tecan). Before the assay was run, the culture medium was replaced by a transport medium (FCS-free HEPES carbonate transport buffer pH 7.2). For the assessment of monolayer integrity, the transepithelial electrical resistance (TEER) was measured. Only monolayers with a TEER of at least 400 Ω·cm^2 were used. Test compounds were pre-dissolved in DMSO and added either to the apical or basolateral compartment at a final concentration of 2 μM. The evaluation was performed in triplicate. […] The efflux ratio (ER) basolateral (B) to apical (A) was calculated by dividing Papp B–A by Papp A–B.

Aqueous solubility = type: physicochemical; conditions: PBS pH 6.5, pH 6.5, PBS pH 6.5
Description: Test compounds were applied as DMSO solutions or directly from powder. After the addition of the buffer, solutions were shaken at rt for 24 h. The undissolved material was removed by filtration or centrifugation. The compound dissolved in the supernatant was quantified by HPLC-UV or HPLC-MS/MS.

USP21 = target: T2, USP21 (Homo sapiens, UniProt Q9UK80); assay: SPR binding; conditions: single-cycle kinetics, 15 °C
T2 construct: made in house; host or cells: E. coli BL21(DE3)
Description: For binding analysis, a multi-cycle protocol was chosen with a contact time of 60 s, a flow rate of 30 μL/min, and a dissociation time of 200 s. Binding constants were calculated from the steady state using Biacore Insight Evaluation Software, assuming a 1:1 binding model as an average of four titrations. […] Immobilization levels were kept similar to the above. […] The running buffer of the duplicate measurements is 10 mM HEPES, pH 7.4, 150 mM NaCl, 0,005% surfactant P20 further supplemented with 2 mg/mL BSA and 1% DMSO. Affinity and kinetic analysis were performed using Biacore Insight Evaluation Software on double reference subtracted sensorgrams.

Adrenergic α2B = target: T3, Adrenergic α2B (Homo sapiens, UniProt P18089); assay: Eurofins Panlabs safety screen; type: binding
T3 construct: Eurofins Panlabs

Muscarinic M4 = target: T4, Muscarinic M4 (Homo sapiens, UniProt P08173); assay: Eurofins Panlabs safety screen; type: binding
T4 construct: Eurofins Panlabs

[2] = target: T5, Serotonin (5-Hydroxytryptamine) 5-HT2B (Homo sapiens, UniProt P41595); assay: Eurofins Panlabs safety screen; type: binding
T5 construct: Eurofins Panlabs

[3] = target: T6, Serotonin (5-Hydroxytryptamine) 5-HT2C (Homo sapiens, UniProt P28335); assay: Eurofins Panlabs safety screen; type: binding
T6 construct: Eurofins Panlabs
T6 sequence (P28335 33-458): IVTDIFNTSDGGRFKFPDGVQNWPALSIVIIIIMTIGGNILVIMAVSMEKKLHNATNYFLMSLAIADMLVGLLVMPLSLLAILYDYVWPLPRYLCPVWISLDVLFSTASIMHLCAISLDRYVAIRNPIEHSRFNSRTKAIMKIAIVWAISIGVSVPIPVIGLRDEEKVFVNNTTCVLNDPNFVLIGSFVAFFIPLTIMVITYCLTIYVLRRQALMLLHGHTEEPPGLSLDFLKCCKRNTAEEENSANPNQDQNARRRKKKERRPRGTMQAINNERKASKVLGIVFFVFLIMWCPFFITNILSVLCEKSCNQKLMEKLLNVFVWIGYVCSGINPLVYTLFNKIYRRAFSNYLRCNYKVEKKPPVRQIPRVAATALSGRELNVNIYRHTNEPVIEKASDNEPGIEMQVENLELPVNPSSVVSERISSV

Dopamine D2S = Dopamine D2S (Homo sapiens, UniProt P14416); assay: Eurofins Panlabs safety screen; type: binding
PRP4(h) = target: T7, PRP4(h) (Homo sapiens, UniProt Q13523); assay: Eurofins kinase panel; type: biochemical
T7 construct: purchased Eurofins (formerly Millipore/Upstate) KinaseProfiler

[4] = target: T8, Nicotinic Acetylcholine α3β4 (Homo sapiens, UniProt P30926+P32297); assay: Eurofins Panlabs safety screen; type: binding
T8 construct: Eurofins Panlabs

Opiate δ1 (OP1, DOP) = target: T9, Opiate δ1 (OP1, DOP) (Homo sapiens, UniProt P41143); assay: Eurofins Panlabs safety screen; type: binding
T9 construct: Eurofins Panlabs
T9 sequence (P41143 whole entry): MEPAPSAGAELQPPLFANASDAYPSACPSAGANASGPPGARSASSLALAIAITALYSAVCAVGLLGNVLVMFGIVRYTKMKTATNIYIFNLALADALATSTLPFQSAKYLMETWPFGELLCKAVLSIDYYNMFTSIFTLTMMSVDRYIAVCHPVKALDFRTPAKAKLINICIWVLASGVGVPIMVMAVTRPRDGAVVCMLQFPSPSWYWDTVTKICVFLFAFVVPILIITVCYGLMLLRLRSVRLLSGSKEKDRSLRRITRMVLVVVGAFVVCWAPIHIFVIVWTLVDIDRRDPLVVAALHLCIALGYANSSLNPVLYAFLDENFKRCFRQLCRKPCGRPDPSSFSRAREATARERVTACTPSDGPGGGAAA

Androgen (Testosterone) = Androgen (Testosterone) (Homo sapiens, UniProt P10275); assay: Eurofins Panlabs safety screen; type: binding
Sequence of Androgen (Testosterone) (P10275 whole entry): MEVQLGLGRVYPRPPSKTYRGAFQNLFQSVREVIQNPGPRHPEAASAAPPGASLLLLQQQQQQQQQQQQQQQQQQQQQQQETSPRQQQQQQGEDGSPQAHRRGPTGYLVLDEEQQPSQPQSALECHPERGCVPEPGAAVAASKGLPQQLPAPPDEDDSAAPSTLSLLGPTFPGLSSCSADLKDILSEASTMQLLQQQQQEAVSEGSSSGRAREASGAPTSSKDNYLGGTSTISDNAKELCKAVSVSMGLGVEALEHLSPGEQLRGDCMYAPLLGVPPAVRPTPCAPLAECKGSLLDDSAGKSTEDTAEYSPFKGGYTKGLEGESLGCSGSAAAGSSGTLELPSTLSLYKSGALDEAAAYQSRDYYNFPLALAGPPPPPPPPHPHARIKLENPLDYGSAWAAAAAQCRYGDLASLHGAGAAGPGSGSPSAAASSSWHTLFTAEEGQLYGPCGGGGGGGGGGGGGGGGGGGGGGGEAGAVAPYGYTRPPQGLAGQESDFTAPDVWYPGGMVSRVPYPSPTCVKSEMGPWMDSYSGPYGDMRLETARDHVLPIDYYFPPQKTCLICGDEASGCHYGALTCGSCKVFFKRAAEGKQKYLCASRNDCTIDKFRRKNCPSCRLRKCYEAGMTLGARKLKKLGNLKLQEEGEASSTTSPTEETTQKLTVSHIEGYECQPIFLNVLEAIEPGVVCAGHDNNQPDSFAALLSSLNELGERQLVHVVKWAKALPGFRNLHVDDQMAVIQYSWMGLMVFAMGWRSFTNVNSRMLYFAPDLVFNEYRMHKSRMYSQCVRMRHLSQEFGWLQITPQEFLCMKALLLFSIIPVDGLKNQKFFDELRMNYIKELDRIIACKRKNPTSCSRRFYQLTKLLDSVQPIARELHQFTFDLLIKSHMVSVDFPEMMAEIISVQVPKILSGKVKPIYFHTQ

Fms(h) = target: T10, Fms(h) (Homo sapiens, UniProt P07333); assay: Eurofins kinase panel; type: biochemical
T10 construct: purchased Eurofins (formerly Millipore/Upstate) KinaseProfiler

Cannabinoid CB2 = Cannabinoid CB2 (Homo sapiens, UniProt P34972); assay: Eurofins Panlabs safety screen; type: binding
[5] = target: T11, Serotonin (5-Hydroxytryptamine) 5-HT2A (Homo sapiens, UniProt P28223); assay: Eurofins Panlabs safety screen; type: binding
T11 construct: Eurofins Panlabs

Adrenergic α2A = target: T12, Adrenergic α2A (Homo sapiens, UniProt P08913); assay: Eurofins Panlabs safety screen; type: binding
T12 construct: Eurofins Panlabs
T12 sequence (P08913 whole entry): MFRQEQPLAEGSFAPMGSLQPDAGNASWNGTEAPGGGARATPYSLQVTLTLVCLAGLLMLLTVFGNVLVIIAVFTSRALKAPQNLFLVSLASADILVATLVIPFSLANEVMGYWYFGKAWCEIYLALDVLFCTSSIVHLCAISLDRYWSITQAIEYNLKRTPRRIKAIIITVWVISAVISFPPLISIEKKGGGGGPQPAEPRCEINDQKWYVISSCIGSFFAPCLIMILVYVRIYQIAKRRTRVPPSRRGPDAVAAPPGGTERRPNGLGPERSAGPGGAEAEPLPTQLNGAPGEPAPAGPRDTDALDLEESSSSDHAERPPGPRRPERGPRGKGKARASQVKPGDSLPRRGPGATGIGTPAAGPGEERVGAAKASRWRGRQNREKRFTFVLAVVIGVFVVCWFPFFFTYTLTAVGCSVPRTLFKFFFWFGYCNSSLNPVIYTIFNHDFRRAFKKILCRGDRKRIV

Muscarinic M1 = target: T13, Muscarinic M1 (Homo sapiens, UniProt P11229); assay: Eurofins Panlabs safety screen; type: binding
T13 construct: Eurofins Panlabs

[6] = target: T14, Serotonin (5-Hydroxytryptamine) 5-HT1A (Homo sapiens, UniProt P08908); assay: Eurofins Panlabs safety screen; type: binding
T14 construct: Eurofins Panlabs

Muscarinic M3 = target: T15, Muscarinic M3 (Homo sapiens, UniProt P20309); assay: Eurofins Panlabs safety screen; type: binding
T15 construct: Eurofins Panlabs
T15 sequence (P20309 whole entry): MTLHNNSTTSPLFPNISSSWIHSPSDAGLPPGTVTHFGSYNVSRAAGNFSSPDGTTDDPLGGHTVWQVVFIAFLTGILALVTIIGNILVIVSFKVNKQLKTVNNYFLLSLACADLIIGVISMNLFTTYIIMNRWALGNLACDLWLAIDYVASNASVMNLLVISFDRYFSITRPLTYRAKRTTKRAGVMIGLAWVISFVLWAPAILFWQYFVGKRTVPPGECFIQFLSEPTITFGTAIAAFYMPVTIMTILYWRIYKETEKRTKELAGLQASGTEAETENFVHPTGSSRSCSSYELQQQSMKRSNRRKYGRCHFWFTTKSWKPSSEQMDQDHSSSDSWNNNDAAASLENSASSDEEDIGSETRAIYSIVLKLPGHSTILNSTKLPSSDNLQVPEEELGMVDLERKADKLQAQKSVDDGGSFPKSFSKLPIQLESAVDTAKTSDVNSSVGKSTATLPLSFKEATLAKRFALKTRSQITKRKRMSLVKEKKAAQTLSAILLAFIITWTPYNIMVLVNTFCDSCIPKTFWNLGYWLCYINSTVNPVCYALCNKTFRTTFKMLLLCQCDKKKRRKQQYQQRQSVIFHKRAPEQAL

[7] = target: T16, Cholinesterase, Acetyl, ACES (Homo sapiens, UniProt P22303); assay: Eurofins Panlabs safety screen; type: biochemical
T16 construct: Eurofins Panlabs
T16 sequence (P22303 32-614): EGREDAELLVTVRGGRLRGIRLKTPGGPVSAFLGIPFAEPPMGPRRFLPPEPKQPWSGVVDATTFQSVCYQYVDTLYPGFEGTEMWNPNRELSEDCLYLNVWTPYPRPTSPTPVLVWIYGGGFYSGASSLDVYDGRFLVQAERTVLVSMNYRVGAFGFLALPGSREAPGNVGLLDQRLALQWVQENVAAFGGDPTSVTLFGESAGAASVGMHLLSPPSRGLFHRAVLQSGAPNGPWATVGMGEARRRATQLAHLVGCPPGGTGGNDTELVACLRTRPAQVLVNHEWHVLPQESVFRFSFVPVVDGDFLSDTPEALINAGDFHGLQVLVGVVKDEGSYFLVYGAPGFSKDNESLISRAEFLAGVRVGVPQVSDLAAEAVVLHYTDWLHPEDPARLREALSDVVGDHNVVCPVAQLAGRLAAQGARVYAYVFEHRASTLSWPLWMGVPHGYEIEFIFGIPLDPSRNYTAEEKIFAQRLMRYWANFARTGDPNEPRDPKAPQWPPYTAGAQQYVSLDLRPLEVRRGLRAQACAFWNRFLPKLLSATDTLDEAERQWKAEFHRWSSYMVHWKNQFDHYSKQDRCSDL

Adrenergic α2C = target: T17, Adrenergic α2C (Homo sapiens, UniProt P18825); assay: Eurofins Panlabs safety screen; type: binding
T17 construct: Eurofins Panlabs
T17 sequence (P18825 whole entry): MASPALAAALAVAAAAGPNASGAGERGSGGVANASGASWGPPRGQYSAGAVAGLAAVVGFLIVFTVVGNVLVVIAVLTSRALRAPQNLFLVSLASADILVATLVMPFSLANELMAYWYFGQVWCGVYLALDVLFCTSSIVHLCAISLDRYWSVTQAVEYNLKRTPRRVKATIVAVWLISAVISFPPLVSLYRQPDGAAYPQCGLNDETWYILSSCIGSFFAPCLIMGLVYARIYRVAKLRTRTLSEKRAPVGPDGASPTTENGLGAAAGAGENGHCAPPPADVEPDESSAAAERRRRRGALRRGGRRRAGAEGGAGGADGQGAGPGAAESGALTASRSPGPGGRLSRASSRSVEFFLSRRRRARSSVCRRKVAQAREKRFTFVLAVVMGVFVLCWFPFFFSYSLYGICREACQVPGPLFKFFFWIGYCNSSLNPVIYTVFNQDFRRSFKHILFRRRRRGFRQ

Opiate μ (OP3, MOP) = target: T18, Opiate μ (OP3, MOP) (Homo sapiens, UniProt P35372); assay: Eurofins Panlabs safety screen; type: binding
T18 construct: Eurofins Panlabs
T18 sequence (P35372 whole entry): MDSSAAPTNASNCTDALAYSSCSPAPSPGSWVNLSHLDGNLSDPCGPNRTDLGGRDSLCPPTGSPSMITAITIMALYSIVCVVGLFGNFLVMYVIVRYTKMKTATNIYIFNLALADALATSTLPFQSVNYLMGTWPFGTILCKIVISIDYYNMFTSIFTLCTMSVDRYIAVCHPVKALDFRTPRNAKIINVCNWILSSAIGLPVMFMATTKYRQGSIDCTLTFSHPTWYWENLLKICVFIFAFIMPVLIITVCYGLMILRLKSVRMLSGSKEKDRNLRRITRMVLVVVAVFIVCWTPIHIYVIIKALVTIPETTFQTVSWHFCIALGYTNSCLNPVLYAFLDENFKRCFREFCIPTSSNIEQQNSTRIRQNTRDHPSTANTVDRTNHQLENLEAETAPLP

Adrenergic α1A = target: T19, Adrenergic α1A (Homo sapiens, UniProt P35348); assay: Eurofins Panlabs safety screen; type: binding
T19 construct: Eurofins Panlabs

Muscarinic M2 = target: T20, Muscarinic M2 (Homo sapiens, UniProt P08172); assay: Eurofins Panlabs safety screen; type: binding
T20 construct: Eurofins Panlabs

Dopamine D1 = Dopamine D1 (Homo sapiens, UniProt P21728); assay: Eurofins Panlabs safety screen; type: binding
Sequence of Dopamine D1 (P21728 whole entry): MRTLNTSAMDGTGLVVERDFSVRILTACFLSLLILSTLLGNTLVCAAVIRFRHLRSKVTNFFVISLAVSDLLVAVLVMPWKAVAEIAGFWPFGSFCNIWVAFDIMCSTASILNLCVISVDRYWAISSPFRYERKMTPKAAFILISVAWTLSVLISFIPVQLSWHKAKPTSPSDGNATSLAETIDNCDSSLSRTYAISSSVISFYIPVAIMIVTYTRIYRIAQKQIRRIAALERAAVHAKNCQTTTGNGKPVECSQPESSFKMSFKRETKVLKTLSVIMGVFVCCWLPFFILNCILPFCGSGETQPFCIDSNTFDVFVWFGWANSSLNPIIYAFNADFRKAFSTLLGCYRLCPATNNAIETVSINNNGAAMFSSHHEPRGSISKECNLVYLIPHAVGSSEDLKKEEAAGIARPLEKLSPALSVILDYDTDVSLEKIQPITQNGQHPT

Cannabinoid CB1 = Cannabinoid CB1 (Homo sapiens, UniProt P21554); assay: Eurofins Panlabs safety screen; type: binding
Dopamine D3 = Dopamine D3 (Homo sapiens, UniProt P35462); assay: Eurofins Panlabs safety screen; type: binding
Dopamine D2L = Dopamine D2L (Homo sapiens, UniProt P14416); assay: Eurofins Panlabs safety screen; type: binding

chromatographic logD (log D measurement (HPLC)): 2.5 | cellular thermal stabilization of USP21 (in words) [1]: strong cellular target engagement | Papp A→B at 2 h, 2 µM (in vitro; 2 μM, 2 h): 1.4 ×10⁻⁶ cm/s | efflux ratio at 2 h, 2 µM (in vitro; Papp B–A / Papp A–B, read-out: Caco-2 efflux ratio (ER)): 14 | solubility at 24 h (Aqueous solubility): 91.2 µM (≈ 43.9 µg/mL) | Kd (USP21): 0.0058 µM
SMILES: N#Cc1ccc(Cc2nnc(NC(=O)[C@@H](CO)NC(=O)C3(C(F)(F)F)CCCCC3)s2)cc1 [Compound 18, OC[C@@H](NC(=O)C1(CCCCC1)C(F)(F)F)C(=O)Nc2nnc(Cc3ccc(cc3)C#N)s2]
NF-κB activation (in words) (NF-κB activation): cellular activity was not observed

SMILES: CC(C)C[C@@H](NC(=O)C1(C(F)(F)F)CCCCC1)C(=O)Nc1nnc(Cc2ccc(C#N)cc2)s1 [Compound 21, N-[(1R)-1-[[5-[(4-Cyanophenyl)methyl]-1,3,4-thiadiazol-2-yl]carbamoyl]-3-methyl-butyl]-1-(trifluoromethyl)cyclohexanecarboxamide]
inhibition at 10 µM (Adrenergic α2B): 4% | inhibition at 10 µM (Muscarinic M4): -4% | inhibition at 10 µM [2]: 3% | inhibition at 10 µM [3]: -5% | inhibition at 10 µM (Dopamine D2S): 24% | inhibition at 10 µM (PRP4(h)): 8.18% | inhibition at 10 µM [4]: -3% | inhibition at 10 µM (Opiate δ1 (OP1, DOP)): -5% | inhibition at 10 µM (Androgen (Testosterone)): 4% | inhibition at 10 µM (Fms(h)): 3.41% | inhibition at 10 µM (Cannabinoid CB2): 1% | inhibition at 10 µM [5]: 4% | inhibition at 10 µM (Adrenergic α2A): 14% | inhibition at 10 µM (Muscarinic M1): 18% | inhibition at 10 µM [6]: 2% | inhibition at 10 µM (Muscarinic M3): 7% | IC50 [7]: 7.61 µM | inhibition at 10 µM [7]: 72% | inhibition at 0.1 µM ([7]; IC50 determination, 0.1 µM): 15% | inhibition at 0.3 µM ([7]; IC50 determination, 0.3 µM): 16% | inhibition at 1 µM ([7]; IC50 determination, 1 µM): 11% | inhibition at 3 µM ([7]; IC50 determination, 3 µM): 4% | inhibition at 10 µM ([7]; IC50 determination): 74% | inhibition at 30 µM ([7]; IC50 determination, 30 µM): 74% | inhibition at 10 µM (Adrenergic α2C): 6% | inhibition at 10 µM (Opiate μ (OP3, MOP)): -1% | inhibition at 10 µM (Adrenergic α1A): 1% | inhibition at 10 µM (Muscarinic M2): 2% | inhibition at 10 µM (Dopamine D1): -3% | inhibition at 10 µM (Cannabinoid CB1): 8% | inhibition at 10 µM (Dopamine D3): 9% | inhibition at 10 µM (Dopamine D2L): 8%
